The values that follow come from patent US11999727B2 (Tango Therapeutics, Inc., priority 2020, dated 2024).

For assay [1], the target named is T1, PRMT5 (Homo sapiens, UniProt O14744).
T1 construct: purchased Viva (custom protein)
Kind of assay: PRMT5 biochemical IC50 assay with no cofactor. Particulars: PRMT5, no cofactor; read-out: No Cofactor/rel IC50. From the text:
Table 1 indicates IC50 values (μM) against PRMT5 for exemplary compounds in the presence of SAM as cofactor, with no cofactor, and with MTA as cofactor, respectively (columns 4-6). […] Ki values can be calculated from the IC50 values as described in the Examples section. As detailed in the Examples section, for the assay performed in the presence of SAM, IC50=Ki×1.5 (Ki=IC50/1.5).

Assay [2] has as its target T1, PRMT5. Description: PRMT5 biochemical IC50 assay with SAM as cofactor. Particulars: PRMT5, SAM as cofactor; read-out: SAM IC50.
Assay [3] deals with HAP1 MTAP-deleted cell line. Kind of assay: Viability assay, MTAP-deleted cell line. Format: cell-based. Particulars: Homo sapiens, HAP1, viability IC50, MTAP-deleted cell line; read-out: HAP1 MTAP deleted viability. From the text: Table 1 additionally indicates IC50 values in a viability assay for the MTAP-deleted cell line (column 10), indicating the effect of treatment with compound on cell survival.

The target of assay [4] is T1, PRMT5. Description: PRMT5 biochemical IC50 assay with MTA as cofactor. Conditions: PRMT5, MTA as cofactor; read-out: MTA IC50.
Assay [5] has as its system HAP1 MTAP-intact cell line. Kind of assay: SDMA in-cell western assay, HAP1 MTAP-intact. Particulars: Homo sapiens, HAP1, SDMA in-cell western, HAP1 MTAP-intact; read-out: MTAP HAP1 intact IC50. The assay is classed as cell-based. In outline: (§1)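 Readout: in-cell western detection of SDMA. Cells: HAP1 expressing endogenous MTAP and an MTAP-null HAP1 counterpart. Output: IC50.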

Assay [6] relates to HAP1 MTAP-deleted cell line. Description: SDMA in-cell western assay, HAP1 MTAP-deleted. Conditions: for IC50: Homo sapiens, HAP1, SDMA in-cell western, HAP1 MTAP-deleted, read-out: HAP 1 MTAP deleted IC50; for MTAP intact/deleted ratio: IC50 ratio HAP1 MTAP-intact / HAP1 MTAP-deleted, SDMA in-cell western. The assay is classed as cell-based. The gist of the method:
as §1

T1 sequence (O14744 whole entry): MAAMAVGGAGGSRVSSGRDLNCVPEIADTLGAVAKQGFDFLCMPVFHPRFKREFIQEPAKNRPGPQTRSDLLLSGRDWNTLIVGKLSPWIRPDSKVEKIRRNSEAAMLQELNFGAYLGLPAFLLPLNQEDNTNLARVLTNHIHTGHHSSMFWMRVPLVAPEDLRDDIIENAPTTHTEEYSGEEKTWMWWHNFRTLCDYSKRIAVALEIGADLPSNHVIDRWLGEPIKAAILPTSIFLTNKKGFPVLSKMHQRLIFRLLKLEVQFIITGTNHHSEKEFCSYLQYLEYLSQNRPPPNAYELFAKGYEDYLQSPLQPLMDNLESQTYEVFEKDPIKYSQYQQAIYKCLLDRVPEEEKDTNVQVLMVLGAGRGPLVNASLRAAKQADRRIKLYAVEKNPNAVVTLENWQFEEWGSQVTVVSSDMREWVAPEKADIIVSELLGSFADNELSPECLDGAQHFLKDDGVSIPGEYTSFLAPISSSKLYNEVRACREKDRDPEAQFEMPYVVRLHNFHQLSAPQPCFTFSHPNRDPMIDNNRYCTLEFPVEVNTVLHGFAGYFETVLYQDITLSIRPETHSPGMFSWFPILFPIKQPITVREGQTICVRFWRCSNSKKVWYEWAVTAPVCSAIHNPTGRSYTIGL
T1 sequence (Q9BQA1 whole entry partner): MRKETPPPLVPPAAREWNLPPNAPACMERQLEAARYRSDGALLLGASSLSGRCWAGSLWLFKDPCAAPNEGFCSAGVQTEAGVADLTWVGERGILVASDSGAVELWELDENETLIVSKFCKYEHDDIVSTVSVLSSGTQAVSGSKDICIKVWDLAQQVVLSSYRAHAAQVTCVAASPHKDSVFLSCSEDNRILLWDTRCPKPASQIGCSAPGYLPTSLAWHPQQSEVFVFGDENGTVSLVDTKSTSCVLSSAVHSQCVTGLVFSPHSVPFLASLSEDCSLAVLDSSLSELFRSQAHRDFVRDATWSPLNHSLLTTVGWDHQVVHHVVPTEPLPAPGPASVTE

In the case of `Cc1ccc([C@@H]2CC[C@@H](C)CN2C(=O)C(=O)Nc2cncc(C(N)=O)c2)cc1O` (racemic) [Compound 554, 5-[[2-[(2S,5R)-2-(3-hydroxy-4-methyl-phenyl)-5-methyl-1-piperidyl]-2-oxo-acetyl]amino]pyridine-3-carboxamide], the IC50 at PRMT5 [1] was 50 to 500 nM; at PRMT5 [2], 50 to 500 nM; in assay [3], 1000 to 10000 nM; on PRMT5 [4], below 50 nM; in assay [5] it was above 1000 nM; in assay [6], below 100 nM. The MTAP intact/deleted ratio result in assay [6] is on record as “A (an IC50 ratio greater than or equal to 10 fold)”.
In the case of `Cc1cc(NC(=O)C(=O)N2C[C@H](C)CC[C@H]2c2ccc(F)c(O)c2)cnc1N` (racemic) [Compound 555, N-(6-amino-5-methyl-3-pyridyl)-2-[(2R,5S)-2-(4-fluoro-3-hydroxy-phenyl)-5-methyl-1-piperidyl]-2-oxo-acetamide], the IC50 at PRMT5 [1] is 50 to 500 nM; at PRMT5 [2], 50 to 500 nM; in assay [3], below 1000 nM; at PRMT5 [4], below 50 nM; in assay [5], 100 to 1000 nM; in assay [6], below 100 nM. The MTAP intact/deleted ratio entry in assay [6] is reported as “A (an IC50 ratio greater than or equal to 10 fold)”.
As to `Cc1cc(NC(=O)C(=O)N2C[C@H](C)CC[C@H]2c2ccc(-c3ccn[nH]3)s2)cnc1N` (racemic) [Compound 556, N-(6-amino-5-methyl-3-pyridyl)-2-[(2R,5S)-5-methyl-2-[5-(1H-pyrazol-5-yl)-2-thienyl]-1-piperidyl]-2-oxo-acetamide], the IC50 on PRMT5 [1] is 50 to 500 nM; on PRMT5 [2], 50 to 500 nM; in assay [3] it was below 1000 nM; at PRMT5 [4], 50 to 500 nM; in assay [5] it was 100 to 1000 nM; in assay [6], below 100 nM. Also, the MTAP intact/deleted ratio entry in assay [6] is recorded as “A (an IC50 ratio greater than or equal to 10 fold)”.
Turning to `Cc1cncc(NC(=O)C(=O)N2C[C@H](C)CC[C@H]2c2ccc(O)cc2)c1` (racemic) [Compound 557, rac-2-((2R,5S)-2-(4-hydroxyphenyl)-5-methylpiperidin-1-yl)-N-(5-methylpyridin-3-yl)-2-oxoacetamide], the IC50 at PRMT5 [1] was 50 to 500 nM; at PRMT5 [2], 50 to 500 nM; in assay [3] it was above 10000 nM; at PRMT5 [4] it was 50 to 500 nM; in assay [5], above 1000 nM; in assay [6] it was 100 to 1000 nM. For the same molecule, the MTAP intact/deleted ratio result in assay [6] is given as “A (an IC50 ratio greater than or equal to 10 fold)”.
Take `COc1ccccc1[C@@H]1CC[C@@H](C)CN1C(=O)C(=O)Nc1cncc(C(N)=O)c1` (racemic) [Compound 558, 5-[[2-[(2S,5R)-2-(2-Methoxyphenyl)-5-methyl-1-piperidyl]-2-oxo-acetyl]amino]pyridine-3-carboxamide]: the IC50 on PRMT5 [1] is above 500 nM; at PRMT5 [2], 50 to 500 nM; in assay [3], above 10000 nM; on PRMT5 [4] it was 50 to 500 nM; in assay [5] it was above 1000 nM; in assay [6] it was 100 to 1000 nM. Also, in assay [6], the MTAP intact/deleted ratio result is listed as “A (an IC50 ratio greater than or equal to 10 fold)”.
`C[C@@H]1CC[C@@H](c2cc(F)c(O)c(F)c2)N(C(=O)C(=O)Nc2cncc(C(N)=O)c2)C1` (racemic) [Compound 560, rac-5-[[2-[(2R,5S)-2-(3,5-difluoro-4-hydroxy-phenyl)-5-methyl-1-piperidyl]-2-oxo-acetyl]amino]pyridine-3-carboxamide]: the IC50 was 50 to 500 nM on PRMT5 [1]; 50 to 500 nM at PRMT5 [2]; above 10000 nM in assay [3]; 50 to 500 nM at PRMT5 [4]; above 1000 nM in assay [5]; 100 to 1000 nM in assay [6]. Further, in assay [6], the MTAP intact/deleted ratio result is listed as “A (an IC50 ratio greater than or equal to 10 fold)”.
Turning to `CNc1ccc([C@@H]2CCC[C@H](C)N2C(=O)C(=O)Nc2cncc(C(N)=O)c2)cn1` (racemic) [Compound 561, 5-[[2-[(2S,6S)-2-methyl-6-[6-(methylamino)-3-pyridyl]-1-piperidyl]-2-oxo-acetyl]amino]pyridine-3-carboxamide], the IC50 at PRMT5 [1] was 50 to 500 nM; on PRMT5 [2] it was 50 to 500 nM; in assay [3], above 10000 nM; on PRMT5 [4] it was 50 to 500 nM; in assay [5] it was above 1000 nM; in assay [6] it was 100 to 1000 nM. Also, the MTAP intact/deleted ratio result in assay [6] is reported as “A (an IC50 ratio greater than or equal to 10 fold)”.
For `Cc1ccc([C@@H]2CC[C@@H](C)CN2C(=O)C(=O)Nc2cnc(N)c(C)c2)cc1O` (racemic) [Compound 580, N-(6-amino-5-methylpyridin-3-yl)-2-(2-(3-hydroxy-4-methylphenyl)-5-methylpiperidin-1-yl)-2-oxoacetamide], the IC50 is 50 to 500 nM at PRMT5 [1]; 50 to 500 nM at PRMT5 [2]; below 1000 nM in assay [3]; 50 to 500 nM on PRMT5 [4]; 100 to 1000 nM in assay [5]; below 100 nM in assay [6]. Also, the MTAP intact/deleted ratio entry in assay [6] is “A (an IC50 ratio greater than or equal to 10 fold)”.
For `Cc1cc(NC(=O)C(=O)N2C[C@H](C)CC[C@H]2c2ccc3c(c2)C(=O)NC3)cnc1N` (racemic) [Compound 582, N-(6-amino-5-methyl-3-pyridyl)-2-[(2R,5S)-5-methyl-2-(3-oxoisoindolin-5-yl)-1-piperidyl]-2-oxo-acetamide], the IC50 was 50 to 500 nM at PRMT5 [1]; 50 to 500 nM at PRMT5 [2]; 1000 to 10000 nM in assay [3]; 50 to 500 nM at PRMT5 [4]; 100 to 1000 nM in assay [5]; below 100 nM in assay [6]. For the same molecule, the MTAP intact/deleted ratio entry in assay [6] is given as “A (an IC50 ratio greater than or equal to 10 fold)”.
On to `C[C@@H]1CC[C@H](c2ccccn2)N(C(=O)C(=O)Nc2cncc(C(N)=O)c2)C1` (racemic) [Compound 584, 5-[[2-[(2R,5R)-5-methyl-2-(2-pyridyl)-1-piperidyl]-2-oxo-acetyl]amino]pyridine-3-carboxamide], for which the IC50 was above 500 nM on PRMT5 [1]; above 500 nM on PRMT5 [2]; above 10000 nM in assay [3]; 50 to 500 nM at PRMT5 [4]; above 1000 nM in assay [5]; 100 to 1000 nM in assay [6]. Besides, in assay [6], the MTAP intact/deleted ratio entry is given as “A (an IC50 ratio greater than or equal to 10 fold)”.
As for `C[C@@H]1CC[C@@H](c2ccccc2F)N(C(=O)C(=O)Nc2cncc(C(N)=O)c2)C1` (racemic) [Compound 595, 5-[[2-[(2R,5S)-2-(2-Fluorophenyl)-5-methyl-1-piperidyl]-2-oxo-acetyl]amino]pyridine-3-carboxamide], the IC50 at PRMT5 [1] is 50 to 500 nM; on PRMT5 [2] it was 50 to 500 nM; in assay [3], 1000 to 10000 nM; on PRMT5 [4], 50 to 500 nM; in assay [5] it was above 1000 nM; in assay [6], below 100 nM. The MTAP intact/deleted ratio entry in assay [6] is on record as “A (an IC50 ratio greater than or equal to 10 fold)”.
In the case of `Cc1cc(NC(=O)C(=O)N2C[C@H](C)CC[C@H]2c2cccc(Br)c2)cnc1N` (racemic) [Compound 600, N-(6-amino-5-methyl-3-pyridyl)-2-[(2S,5R)-2-(3-bromophenyl)-5-methyl-1-piperidyl]-2-oxo-acetamide], the IC50 on PRMT5 [1] was 50 to 500 nM; on PRMT5 [2], 50 to 500 nM; in assay [3] it was below 1000 nM; on PRMT5 [4] it was 50 to 500 nM; in assay [5] it was 100 to 1000 nM; in assay [6] it was below 100 nM. Besides, the MTAP intact/deleted ratio result in assay [6] is on record as “A (an IC50 ratio greater than or equal to 10 fold)”.
Take `C[C@@H]1CC[C@@H](c2cccc(Br)c2)N(C(=O)C(=O)Nc2cncc(C(N)=O)c2)C1` (racemic) [Compound 601, 5-(2-(2-(3-bromophenyl)-5-methylpiperidin-1-yl)-2-oxoacetamido)nicotinamide]: the IC50 at PRMT5 [1] is 50 to 500 nM; at PRMT5 [2], 50 to 500 nM; in assay [3], 1000 to 10000 nM; at PRMT5 [4], 50 to 500 nM; in assay [5], above 1000 nM; in assay [6] it was below 100 nM. In addition, the MTAP intact/deleted ratio result in assay [6] is “A (an IC50 ratio greater than or equal to 10 fold)”.
`C[C@@H]1CC[C@@H](c2ccc(O)c(C(C)(C)C)c2)N(C(=O)C(=O)Nc2cncc(C(N)=O)c2)C1` (racemic) [Compound 610, 5-[[2-[(2R,5S)-2-(3-tert-Butyl-4-hydroxy-phenyl)-5-methyl-1-piperidyl]-2-oxo-acetyl]amino]pyridine-3-carboxamide]: the IC50 was 50 to 500 nM at PRMT5 [1]; 50 to 500 nM at PRMT5 [2]; 1000 to 10000 nM in assay [3]; 50 to 500 nM on PRMT5 [4]; above 1000 nM in assay [5]; below 100 nM in assay [6]. Also, the MTAP intact/deleted ratio entry in assay [6] was “A (an IC50 ratio greater than or equal to 10 fold)”.
